# Results: patent publication US10894784B2, “Heteroarylbenzimidazole compounds” (BAYER PHARMA AKTIENGESELLSCHAFT, priority 2015, dated 2021)
# Target: TBK1 (Homo sapiens (Human), UniProt Q9UHD2)
# Assay: TBK1 low ATP kinase assay (in vitro assay 1)
# Assay type: biochemical
# Details: in vitro assay 1, read-out: TBK1 low ATP kinase assay IC50
# TBK1, sequence (Q9UHD2 whole entry): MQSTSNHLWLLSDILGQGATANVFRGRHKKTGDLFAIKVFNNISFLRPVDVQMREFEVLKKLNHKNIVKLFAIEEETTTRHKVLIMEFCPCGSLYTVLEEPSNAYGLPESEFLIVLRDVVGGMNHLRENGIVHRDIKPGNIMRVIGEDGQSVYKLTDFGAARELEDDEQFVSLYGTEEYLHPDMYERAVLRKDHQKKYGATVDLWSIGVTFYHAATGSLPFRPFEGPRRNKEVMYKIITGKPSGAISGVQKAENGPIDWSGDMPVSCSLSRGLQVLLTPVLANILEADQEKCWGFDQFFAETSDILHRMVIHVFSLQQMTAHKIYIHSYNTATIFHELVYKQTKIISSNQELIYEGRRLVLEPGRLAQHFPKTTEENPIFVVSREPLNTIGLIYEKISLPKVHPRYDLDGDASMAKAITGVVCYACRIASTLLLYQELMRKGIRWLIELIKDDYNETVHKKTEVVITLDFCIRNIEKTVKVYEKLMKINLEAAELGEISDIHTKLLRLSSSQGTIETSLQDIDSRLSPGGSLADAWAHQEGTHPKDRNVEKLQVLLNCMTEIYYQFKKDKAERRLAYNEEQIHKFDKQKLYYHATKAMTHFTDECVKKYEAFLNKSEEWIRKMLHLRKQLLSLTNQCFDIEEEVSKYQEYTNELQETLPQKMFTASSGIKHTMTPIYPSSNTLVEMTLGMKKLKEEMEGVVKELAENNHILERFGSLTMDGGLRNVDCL
row,Compound,IC50
1,"COc1cncnc1-c1ccc2nc(Nc3cc(CN4CCN(C(=O)N(C)C)CC4)ccn3)[nH]c2c1 [Example 35.01.03, 4-[(2-{[6-(5-methoxypyrimidin-4-yl)-1H-benzimidazol-2-yl]amino}pyridin-4-yl)methyl]-N,N-dimethylpiperazine-1-carboxamide]",59.1 nM
2,"CCN(CC)C(=O)N1CCN(Cc2ccnc(Nc3nc4ccc(-c5ncncc5OC)cc4[nH]3)c2)CC1 [Example 35.01.04, N,N-diethyl-4-[(2-{[6-(5-methoxypyrimidin-4-yl)-1H-benzimidazol-2-yl]amino}pyridin-4-yl)methyl]piperazine-1-carboxamide]",26.9 nM
3,"COc1cncnc1-c1ccc2nc(Nc3cc(CN4CCN(C(=O)N5CCCC5)CC4)ccn3)[nH]c2c1 [Example 35.01.05, {4-[(2-{[6-(5-methoxypyrimidin-4-yl)-1H-benzimidazol-2-yl]amino}pyridin-4-yl)methyl]piperazin-1-yl}(pyrrolidin-1-yl)methanone]",48 nM
4,"COc1cncnc1-c1ccc2nc(Nc3cc(CN4CCN(C(=O)N5CCCCC5)CC4)ccn3)[nH]c2c1 [Example 35.01.06, {4-[(2-{[6-(5-methoxypyrimidin-4-yl)-1H-benzimidazol-2-yl]amino}pyridin-4-yl)methyl]piperazin-1-yl}(piperidin-1-yl)methanone]",47.9 nM
5,"COc1cncnc1-c1ccc2nc(Nc3cc(CN4CCN(C(=O)N5CCOCC5)CC4)ccn3)[nH]c2c1 [Example 35.01.07, {4-[(2-{[6-(5-methoxypyrimidin-4-yl)-1H-benzimidazol-2-yl]amino}pyridin-4-yl)methyl]piperazin-1-yl}(morpholin-4-yl)methanone]",77.3 nM
6,"CCS(=O)(=O)N1CCN(Cc2ccnc(Nc3nc4ccc(-c5ncncc5OC)cc4[nH]3)c2)CC1 [Example 35.01.08, N-(4-{[4-(ethylsulfonyl)piperazin-1-yl]methyl}pyridin-2-yl)-6-(5-methoxypyrimidin-4-yl)-1H-benzimidazol-2-amine]",24.3 nM
7,"COc1cncnc1-c1ccc2nc(Nc3cc(CN4CCN(S(=O)(=O)CCC(F)(F)F)CC4)ccn3)[nH]c2c1 [Example 35.01.09, 6-(5-methoxypyrimidin-4-yl)-N-[4-({4-[(3,3,3-trifluoropropyl)sulfonyl]piperazin-1-yl}methyl)pyridin-2-yl]-1H-benzimidazol-2-amine]",40.6 nM
8,"COCCCS(=O)(=O)N1CCN(Cc2ccnc(Nc3nc4ccc(-c5ncncc5OC)cc4[nH]3)c2)CC1 [Example 35.01.10, N-[4-({4-[(3-methoxypropyl)sulfonyl]piperazin-1-yl}methyl)pyridin-2-yl]-6-(5-methoxypyrimidin-4-yl)-1H-benzimidazol-2-amine]",35 nM
9,"COCCOCCS(=O)(=O)N1CCN(Cc2ccnc(Nc3nc4ccc(-c5ncncc5OC)cc4[nH]3)c2)CC1 [Example 35.01.11, N-{4-[(4-{[2-(2-methoxyethoxy)ethyl]sulfonyl}piperazin-1-yl)methyl]pyridin-2-yl}-6-(5-methoxypyrimidin-4-yl)-1H-benzimidazol-2-amine]",28.6 nM
10,"COc1cncnc1-c1ccc2nc(Nc3cc(CN4CCN(S(=O)(=O)C5CC5)CC4)ccn3)[nH]c2c1 [Example 35.01.12, N-(4-{[4-(cyclopropylsulfonyl)piperazin-1-yl]methyl}pyridin-2-yl)-6-(5-methoxypyrimidin-4-yl)-1H-benzimidazol-2-amine]",32.4 nM
11,"COc1cncnc1-c1ccc2nc(Nc3cc(CN4CCN(S(=O)(=O)C5CCCCC5)CC4)ccn3)[nH]c2c1 [Example 35.01.13, N-(4-{[4-(cyclohexylsulfonyl)piperazin-1-yl]methyl}pyridin-2-yl)-6-(5-methoxypyrimidin-4-yl)-1H-benzimidazol-2-amine]",60.9 nM
12,"COc1cncnc1-c1ccc2nc(Nc3cc(CN4CCN(S(=O)(=O)C5CCOCC5)CC4)ccn3)[nH]c2c1 [Example 35.01.14, 6-(5-methoxypyrimidin-4-yl)-N-(4-{[4-(tetrahydro-2H-pyran-4-ylsulfonyl)piperazin-1-yl]methyl}pyridin-2-yl)-1H-benzimidazol-2-amine]",22.8 nM
13,"COc1cncnc1-c1ccc2nc(Nc3cc(CN4CCN(S(=O)(=O)N(C)C)CC4)ccn3)[nH]c2c1 [Example 35.01.15, 4-[(2-{[6-(5-methoxypyrimidin-4-yl)-1H-benzimidazol-2-yl]amino}pyridin-4-yl)methyl]-N,N-dimethylpiperazine-1-sulfonamide]",38 nM
14,"COCC1CCN(S(=O)(=O)N2CCN(Cc3ccnc(Nc4nc5ccc(-c6ncncc6OC)cc5[nH]4)c3)CC2)CC1 [Example 35.01.16, N-{4-[(4-{[4-(methoxymethyl)piperidin-1-yl]sulfonyl}piperazin-1-yl)methyl]pyridin-2-yl}-6-(5-methoxypyrimidin-4-yl)-1H-benzimidazol-2-amine]",45.9 nM
15,"COc1cncnc1-c1ccc2nc(Nc3cc(CN4CCN(S(=O)(=O)N5CCC(OC)CC5)CC4)ccn3)[nH]c2c1 [Example 35.01.17, N-[4-({4-[(4-methoxypiperidin-1-yl)sulfonyl]piperazin-1-yl}methyl)pyridin-2-yl]-6-(5-methoxypyrimidin-4-yl)-1H-benzimidazol-2-amine]",39.2 nM
16,"COc1cncnc1-c1ccc2nc(Nc3cc(CN4CCN(S(=O)(=O)N5CC(C)OC(C)C5)CC4)ccn3)[nH]c2c1 (stereo not drawn) [Example 35.01.18, N-[4-({4-[(2,6-dimethylmorpholin-4-yl)sulfonyl]piperazin-1-yl}methyl)pyridin-2-yl]-6-(5-methoxypyrimidin-4-yl)-1H-benzimidazol-2-amine]",41.8 nM
17,"Cn1cc(-c2ccc3nc(Nc4cc(CN5CCN(C(=O)CC(F)(F)F)CC5)ccn4)[nH]c3c2)cn1 [Example 37.01, 3,3,3-trifluoro-1-{4-[(2-{[6-(1-methyl-1H-pyrazol-4-yl)-1H-benzimidazol-2-yl]amino}pyridin-4-yl)methyl]piperazin-1-yl}propan-1-one]",55.3 nM
18,"CCn1cc(-c2ccc3nc(Nc4cc(CN5CCN(C(=O)CC(F)(F)F)CC5)ccn4)[nH]c3c2)cn1 [Example 38.02, 1-{4-[(2-{[6-(1-ethyl-1H-pyrazol-4-yl)-1H-benzimidazol-2-yl]amino}pyridin-4-yl)methyl]piperazin-1-yl}-3,3,3-trifluoropropan-1-one]",50.4 nM
19,"O=C(CC(F)(F)F)N1CCN(Cc2ccnc(Nc3nc4ccc(-c5cnn(CC6CC6)c5)cc4[nH]3)c2)CC1 [Example 39.01.02, 1-(4-{[2-({6-[1-(cyclopropylmethyl)-1H-pyrazol-4-yl]-1H-benzimidazol-2-yl}amino)pyridin-4-yl]methyl}piperazin-1-yl)-3,3,3-trifluoropropan-1-one]",5.89 nM
20,"O=C(C1CC1)N1CCN(Cc2ccnc(Nc3nc4ccc(-c5cnn(CC6CC6)c5)cc4[nH]3)c2)CC1 [Example 39.01.03, cyclopropyl(4-{[2-({6-[1-(cyclopropylmethyl)-1H-pyrazol-4-yl]-1H-benzimidazol-2-yl}amino)pyridin-4-yl]methyl}piperazin-1-yl)methanone]",5.35 nM

# Further lines, results first:
row,IC50,Compound
1,62.5 nM,"Cn1cc(-c2ccc3nc(Nc4cc(CN5CCN(C(=O)CC6CC6)CC5)ccn4)[nH]c3c2)cn1 [Example 37.02, 2-cyclopropyl-1-{4-[(2-{[6-(1-methyl-1H-pyrazol-4-yl)-1H-benzimidazol-2-yl]amino}pyridin-4-yl)methyl]piperazin-1-yl}ethanone]"
2,52.7 nM,"Cn1cc(-c2ccc3nc(Nc4cc(CN5CCN(C(=O)C6CC6)CC5)ccn4)[nH]c3c2)cn1 [Example 37.03, cyclopropyl{4-[(2-{[6-(1-methyl-1H-pyrazol-4-yl)-1H-benzimidazol-2-yl]amino}pyridin-4-yl)methyl]piperazin-1-yl}methanone]"
3,73.9 nM,"Cn1cc(-c2ccc3nc(Nc4cc(CN5CCN(C(=O)C6CCC6)CC5)ccn4)[nH]c3c2)cn1 [Example 37.04, cyclobutyl{4-[(2-{[6-(1-methyl-1H-pyrazol-4-yl)-1H-benzimidazol-2-yl]amino}pyridin-4-yl)methyl]piperazin-1-yl}methanone]"
4,55.8 nM,"CCn1cc(-c2ccc3nc(Nc4cc(CN5CCN(C(=O)C6CC6)CC5)ccn4)[nH]c3c2)cn1 [Example 38.03, cyclopropyl{4-[(2-{[6-(1-ethyl-1H-pyrazol-4-yl)-1H-benzimidazol-2-yl]amino}pyridin-4-yl)methyl]piperazin-1-yl}methanone]"
5,1130 nM,"Cn1ccc(-c2ccc3nc(Nc4cc(CN5CCN(C(=O)CC(F)(F)F)CC5)ccn4)[nH]c3c2)n1 [Example 40.01, 3,3,3-trifluoro-1-{4-[(2-{[6-(1-methyl-1H-pyrazol-3-yl)-1H-benzimidazol-2-yl]amino}pyridin-4-yl)methyl]piperazin-1-yl}propan-1-one]"
6,1270 nM,"Cn1ccc(-c2ccc3nc(Nc4cc(CN5CCN(C(=O)CC6CC6)CC5)ccn4)[nH]c3c2)n1 [Example 40.02, 2-cyclopropyl-1-{4-[(2-{[6-(1-methyl-1H-pyrazol-3-yl)-1H-benzimidazol-2-yl]amino}pyridin-4-yl)methyl]piperazin-1-yl}ethanone]"
7,988 nM,"Cn1ccc(-c2ccc3nc(Nc4cc(CN5CCN(C(=O)C6CC6)CC5)ccn4)[nH]c3c2)n1 [Example 40.03, cyclopropyl{4-[(2-{[6-(1-methyl-1H-pyrazol-3-yl)-1H-benzimidazol-2-yl]amino}pyridin-4-yl)methyl]piperazin-1-yl}methanone]"
8,1390 nM,"Cn1ccc(-c2ccc3nc(Nc4cc(CN5CCN(C(=O)C6CCC6)CC5)ccn4)[nH]c3c2)n1 [Example 40.04, cyclobutyl{4-[(2-{[6-(1-methyl-1H-pyrazol-3-yl)-1H-benzimidazol-2-yl]amino}pyridin-4-yl)methyl]piperazin-1-yl}methanone]"
9,681 nM,"Cn1ncnc1-c1ccc2nc(Nc3cc(CN4CCN(C(=O)CC(F)(F)F)CC4)ccn3)[nH]c2c1 [Example 41.02, 3,3,3-trifluoro-1-{4-[(2-{[6-(1-methyl-1H-1,2,4-triazol-5-yl)-1H-benzimidazol-2-yl]amino}pyridin-4-yl)methyl]piperazin-1-yl}propan-1-one]"
10,770 nM,"Cn1ncnc1-c1ccc2nc(Nc3cc(CN4CCN(C(=O)C5CC5)CC4)ccn3)[nH]c2c1 [Example 41.03, cyclopropyl{4-[(2-{[6-(1-methyl-1H-1,2,4-triazol-5-yl)-1H-benzimidazol-2-yl]amino}pyridin-4-yl)methyl]piperazin-1-yl}methanone]"
